From patent US9828396B2, “Alkyne compounds for treatment of complement mediated disorders” (Achillion Pharmaceuticals, Inc., priority 2014, dated 2017)
Values belong to the molecule of their own block, whether it stands above or below them.

Target: Human factor D (Homo sapiens (Human), UniProt P00746)
Test: Human Factor D Assay
Type: biochemical
Settings: Human factor D 80 nM, substrate Z-L-Lys-SBzl, assay of Example 12
Protocol: Example 12. Human Factor D Assay
Human factor D (purified from human serum, Complement Technology, Inc.) at 80 nM final concentration is incubated with test compound at various concentrations for 5 minutes at room temperature in 50 mM Tris, 1M NaCl, pH 7.5. A synthetic substrate Z-L-Lys-SBzl and DTNB (Ellman's reagent) are added to final concentrations of 100 μM each. The increase in color is recorded at OD405 nm in a microplate in kinetic mode over 30 minutes with 30 second time points in a spectrofluorimeter. IC50 values are calculated by non-linear regression from the percentage of inhibition of complement factor D activity as a function of test compound concentration.

Human factor D, sequence (P00746 26-253): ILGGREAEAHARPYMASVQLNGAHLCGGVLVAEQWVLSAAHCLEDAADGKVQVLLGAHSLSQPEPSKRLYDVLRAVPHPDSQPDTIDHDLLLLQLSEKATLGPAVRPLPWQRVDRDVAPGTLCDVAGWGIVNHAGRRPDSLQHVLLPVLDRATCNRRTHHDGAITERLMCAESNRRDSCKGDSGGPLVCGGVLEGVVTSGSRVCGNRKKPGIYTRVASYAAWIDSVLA

Compound: NC(=O)c1nn(CC(=O)N2CC[C@@H](O)[C@H]2C(=O)NCc2cccc(Cl)c2F)c2ccc(C#Cc3ncccn3)cc12 [Compound 52, 1-(2-((2S,3R)-2-(3-chloro-2-fluorobenzylcarbamoyl)-3-hydroxypyrrolidin-1-yl)-2-oxoethyl)-5-(pyrimidin-2-ylethynyl)-1H-indazole-3-carboxamide]
- IC50: < 1 µM

Compound: NC(=O)c1nn(CC(=O)N2[C@@H]3C[C@@H]3C[C@H]2C(=O)Nc2cccc(-c3ccccc3Cl)c2F)c2ccc(C#Cc3ncc(F)cn3)cc12 [Compound 53, 1-(2-((1R,3S,5R)-3-(2′-chloro-2-fluorobiphenyl-3-ylcarbamoyl)-2-azabicyclo[3.1.0]hexan-2-yl)-2-oxoethyl)-5-((5-fluoropyrimidin-2-yl)ethynyl)-1H-indazole-3-carboxamide]
- IC50: < 1 µM

Compound: NC(=O)c1nn(CC(=O)N2[C@@H]3C[C@@H]3C[C@H]2C(=O)Nc2cccc(C3CC3)n2)c2ccc(C#Cc3ncccn3)cc12 [Compound 54, 1-(2-((1R,3S,5R)-3-(6-cyclopropylpyridin-2-ylcarbamoyl)-2-azabicyclo[3.1.0]hexan-2-yl)-2-oxoethyl)-5-(pyrimidin-2-ylethynyl)-1H-indazole-3-carboxamide]
- IC50: < 1 µM

Compound: NC(=O)c1nn(CC(=O)N2C[C@H](F)C[C@H]2C(=O)Nc2cccc(-c3ccccc3Cl)c2F)c2ccc(C#Cc3ncc(F)cn3)cc12 [Compound 55, 1-(2-((2S,4R)-2-(2′-chloro-2-fluorobiphenyl-3-ylcarbamoyl)-4-fluoropyrrolidin-1-yl)-2-oxoethyl)-5-((5-fluoropyrimidin-2-yl)ethynyl)-1H-indazole-3-carboxamide]
- IC50: < 1 µM

Compound: NC(=O)c1nn(CC(=O)N2[C@@H]3C[C@@H]3C[C@H]2C(=O)Nc2cccc(Cl)n2)c2ccc(C#Cc3ncccn3)cc12 [Compound 56, 1-(2-((1R,3S,5R)-3-(6-chloropyridin-2-ylcarbamoyl)-2-azabicyclo[3.1.0]hexan-2-yl)-2-oxoethyl)-5-(pyrimidin-2-ylethynyl)-1H-indazole-3-carboxamide]
- IC50: < 1 µM

Compound: N#Cc1cccc(NC(=O)[C@@H]2C[C@H]3C[C@H]3N2C(=O)Cn2nc(C(N)=O)c3cc(C#Cc4ncccn4)ccc32)n1 [Compound 57, 1-(2-((1R,3S,5R)-3-(6-cyanopyridin-2-ylcarbamoyl)-2-azabicyclo[3.1.0]hexan-2-yl)-2-oxoethyl)-5-(pyrimidin-2-ylethynyl)-1H-indazole-3-carboxamide]
- IC50: < 1 µM

Compound: NC(=O)c1nn(CC(=O)N2[C@@H]3C[C@@H]3C[C@H]2C(=O)Nc2cccc(Br)n2)c2ccc(C#Cc3ccc(F)cn3)cc12 [Compound 58, 1-(2-((1R,3S,5R)-3-(6-bromopyridin-2-ylcarbamoyl)-2-azabicyclo[3.1.0]hexan-2-yl)-2-oxoethyl)-5-((5-fluoropyridin-2-yl)ethynyl)-1H-indazole-3-carboxamide]
- IC50: < 1 µM

Compound: NC(=O)c1nn(CC(=O)N2[C@@H]3C[C@@H]3C[C@H]2C(=O)Nc2cccc(Br)n2)c2ccc(C#Cc3ccc(C(F)(F)F)cn3)cc12 [Compound 59, 1-(2-((1R,3S,5R)-3-(6-bromopyridin-2-ylcarbamoyl)-2-azabicyclo[3.1.0]hexan-2-yl)-2-oxoethyl)-5-((5-(trifluoromethyl)pyridin-2-yl)ethynyl)-1H-indazole-3-]
- IC50: < 1 µM

Compound: N#Cc1ccc(C#Cc2ccc3c(c2)c(C(N)=O)nn3CC(=O)N2[C@@H]3C[C@@H]3C[C@H]2C(=O)Nc2cccc(Br)n2)nc1 [Compound 60, 1-(2-((1R,3S,5R)-3-(6-bromopyridin-2-ylcarbamoyl)-2-azabicyclo[3.1.0]hexan-2-yl)-2-oxoethyl)-5-((5-cyanopyridin-2-yl)ethynyl)-1H-indazole-3-carboxamide]
- IC50: < 1 µM

Compound: NC(=O)c1nn(CC(=O)N2[C@@H]3C[C@@H]3C[C@H]2C(=O)Nc2cccc(Br)n2)c2ccc(C#Cc3ncc(C(F)(F)F)cn3)cc12 [Compound 61, 1-(2-((1R,3S,5R)-3-(6-bromopyridin-2-ylcarbamoyl)-2-azabicyclo[3.1.0]hexan-2-yl)-2-oxoethyl)-5-((5-(trifluoromethyl)pyrimidin-2-yl)ethynyl)-1H-indazole-3-carboxamide]
- IC50: < 1 µM

Compound: NC(=O)c1nn(CC(=O)N2[C@@H]3C[C@@H]3C[C@H]2C(=O)Nc2cccc(F)n2)c2ccc(C#Cc3ncccn3)cc12 [Compound 62, 1-(2-((1R,3S,5R)-3-(6-fluoropyridin-2-ylcarbamoyl)-2-azabicyclo[3.1.0]hexan-2-yl)-2-oxoethyl)-5-(pyrimidin-2-ylethynyl)-1H-indazole-3-carboxamide]
- IC50: < 1 µM

Compound: NC(=O)c1nn(CC(=O)N2C[C@H](F)C[C@H]2C(=O)Nc2cccc(-c3cc(F)c(F)cc3Cl)c2F)c2ccc(C#Cc3ncc(F)cn3)cc12 [Compound 63, 1-(2-((2S,4R)-2-(2′-chloro-2,4′,5′-trifluorobiphenyl-3-ylcarbamoyl)-4-fluoropyrrolidin-1-yl)-2-oxoethyl)-5-((5-fluoropyrimidin-2-yl)ethynyl)-1H-indazole-3-carboxamide]
- IC50: < 1 µM

Compound: NC(=O)c1nn(CC(=O)N2[C@@H]3C[C@@H]3C[C@H]2C(=O)Nc2cccc(-c3ccc(F)cc3Cl)c2F)c2ccc(C#Cc3ncc(F)cn3)cc12 [Compound 64, 1-(2-((1R,3S,5R)-3-(2′-chloro-2,4′-difluorobiphenyl-3-ylcarbamoyl)-2-azabicyclo[3.1.0]hexan-2-yl)-2-oxoethyl)-5-((5-fluoropyrimidin-2-yl)ethynyl)-1H-indazole-3-carboxamide]
- IC50: < 1 µM

Compound: NC(=O)c1nn(CC(=O)N2[C@@H]3C[C@@H]3C[C@H]2C(=O)Nc2cccc(Br)n2)c2ccc(C#Cc3cc(F)ccn3)cc12 [Compound 65, 1-(2-((1R,3S,5R)-3-(6-bromopyridin-2-ylcarbamoyl)-2-azabicyclo[3.1.0]hexan-2-yl)-2-oxoethyl)-5-((4-fluoropyridin-2-yl)ethynyl)-1H-indazole-3-carboxamide]
- IC50: < 1 µM

Compound: NC(=O)c1nn(CC(=O)N2CCS[C@H]2C(=O)Nc2cccc(-c3ccccc3Cl)c2F)c2ccc(C#Cc3ncccn3)cc12 [Compound 66, (S)-3-(2-(3-carbamoyl-5-(pyrimidin-2-ylethynyl)-1H-indazol-1-yl)acetyl)-N-(2′-chloro-2-fluorobiphenyl-3-yl)thiazolidine-2-carboxamide]
- IC50: < 1 µM

- IC50: < 1 µM
Compound: NC(=O)c1nn(CC(=O)N2C[C@H](F)C[C@H]2C(=O)NCc2cccc(Cl)c2F)c2cnc(C#Cc3ccccc3)cc12 [Compound 67, 1-(2-((2S,4R)-2-(3-chloro-2-fluorobenzylcarbamoyl)-4-fluoropyrrolidin-1-yl)-2-oxoethyl)-5-(phenylethynyl)-1H-pyrazolo[3,4-c]pyridine-3-carboxamide]

Compound: NC(=O)c1nn(CC(=O)N2C[C@H](F)C[C@H]2C(=O)Nc2cncc(Br)c2)c2ccc(C#Cc3ncc(F)cn3)cc12 [Compound 68, 1-(2-((2S,4R)-2-(5-bromopyridin-3-ylcarbamoyl)-4-fluoropyrrolidin-1-yl)-2-oxoethyl)-5-((5-fluoropyrimidin-2-yl)ethynyl)-1H-indazole-3-carboxamide]
- IC50: < 1 µM

Compound: NC(=O)c1nn(CC(=O)N2C[C@H](F)C[C@H]2C(=O)Nc2cccc(-c3cncnc3)c2F)c2ccc(C#Cc3ncccn3)cc12 [Compound 69, 1-(2-((2S,4R)-4-fluoro-2-(2-fluoro-3-(pyrimidin-5-yl)phenylcarbamoyl)pyrrolidin-1-yl)-2-oxoethyl)-5-(pyrimidin-2-ylethynyl)-1H-indazole-3-carboxamide]
- IC50: < 1 µM

Compound: NC(=O)c1nn(CC(=O)N2C[C@H](F)C[C@H]2C(=O)Nc2cncc(C(F)(F)F)n2)c2ccc(C#Cc3ncc(F)cn3)cc12 [Compound 70, 1-(2-((2S,4R)-4-fluoro-2-(6-(trifluoromethyl)pyrazin-2-ylcarbamoyl)pyrrolidin-1-yl)-2-oxoethyl)-5-((5-fluoropyrimidin-2-yl)ethynyl)-1H-indazole-3-carboxamide]
- IC50: < 1 µM

Compound: NC(=O)c1nn(CC(=O)N2C[C@H](F)C[C@H]2C(=O)Nc2ccc3cccc(Cl)c3n2)c2ccc(C#Cc3ncc(F)cn3)cc12 [Compound 71, 1-(2-((2S,4R)-2-(8-chloroquinolin-2-ylcarbamoyl)-4-fluoropyrrolidin-1-yl)-2-oxoethyl)-5-((5-fluoropyrimidin-2-yl)ethynyl)-1H-indazole-3-carboxamide]
- IC50: < 1 µM

Compound: NC(=O)c1nn(CC(=O)N2[C@@H]3C[C@@H]3C[C@H]2C(=O)Nc2ccn(CC(F)(F)F)n2)c2ccc(C#Cc3ncc(F)cn3)cc12 [Compound 72, 5-((5-fluoropyrimidin-2-yl)ethynyl)-1-(2-oxo-2-((1R,3S,5R)-3-(1-(2,2,2-trifluoroethyl)-1H-pyrazol-3-ylcarbamoyl)-2-azabicyclo[3.1.0]hexan-2-yl)ethyl)-1H-indazole-3-carboxamide]
- IC50: < 1 µM

Compound: NC(=O)c1nn(CC(=O)N2C[C@H](F)C[C@H]2C(=O)Nc2cccc(-c3ccccc3Cl)c2F)c2ccc(C#Cc3cccnn3)cc12 [Compound 73, 1-(2-((2S,4R)-2-(2′-chloro-2-fluorobiphenyl-3-ylcarbamoyl)-4-fluoropyrrolidin-1-yl)-2-oxoethyl)-5-(pyridazin-3-ylethynyl)-1H-indazole-3-carboxamide]
- IC50: < 1 µM

Compound: NC(=O)c1nn(CC(=O)N2C[C@H](F)C[C@H]2C(=O)Nc2cc(C(F)(F)F)cc(Cl)n2)c2ccc(C#Cc3ncc(F)cn3)cc12 [Compound 74, 1-(2-((2S,4R)-2-(6-chloro-4-(trifluoromethyl)pyridin-2-ylcarbamoyl)-4-fluoropyrrolidin-1-yl)-2-oxoethyl)-5-((5-fluoropyrimidin-2-yl)ethynyl)-1H-indazole-3-carboxamide]
- IC50: < 1 µM

Compound: NC(=O)c1nn(CC(=O)N2C[C@H](F)C[C@H]2C(=O)Nc2cccc(Cl)n2)c2ccc(C#Cc3cccnn3)cc12 [Compound 75, 1-(2-((2S,4R)-2-(6-chloropyridin-2-ylcarbamoyl)-4-fluoropyrrolidin-1-yl)-2-oxoethyl)-5-(pyridazin-3-ylethynyl)-1H-indazole-3-carboxamide]
- IC50: < 1 µM
